Numbered stars: 1 amine (or outer) side, 2 acyl side, 3 side chain; on linkers, the order of the positions; unused ones are H or OH. Bridge positions count the residues as written; N and C are the ends. Square brackets hold non-standard residues; d marks the D form. Peptide text beside a SMILES is read from it. * marks the point of attachment. hPhe(3-Cl-4-CF3) = N[C@@H](CCc1ccc(C(F)(F)F)c(Cl)c1)C(=O)O; hPhe(3-F,4-CF3) = N[C@@H](CCc1ccc(C(F)(F)F)c(F)c1)C(=O)O; NEtPhe(4-CF3) = CCN[C@@H](Cc1ccc(C(F)(F)F)cc1)C(=O)O; hPhe(4-CF3) = N[C@@H](CCc1ccc(C(F)(F)F)cc1)C(=O)O; Pro(cis-4-Ph) = O=C(O)[C@@H]1C[C@H](c2ccccc2)CN1; NEtPhe(4-Me) = CCN[C@@H](Cc1ccc(C)cc1)C(=O)O; NMePhe(4-Cl) = CN[C@@H](Cc1ccc(Cl)cc1)C(=O)O; NMePhe(4-I) = CN[C@@H](Cc1ccc(I)cc1)C(=O)O; NMedβ3hAla = C[C@H](CC(=O)[*:2])N(C)[*:1]; NMeGly(cPent) = CN[C@H](C(=O)O)C1CCCC1; Pro(4,4-F2) = O=C(O)[C@@H]1CC(F)(F)CN1; NMeGly(cBu) = CN[C@H](C(=O)O)C1CCC1; Gly(cPent) = N[C@H](C(=O)O)C1CCCC1; NMeCha = CN[C@@H](CC1CCCCC1)C(=O)O; Hyp = O=C(O)[C@@H]1C[C@@H](O)CN1; NMeChg = CN[C@H](C(=O)O)C1CCCCC1; NMeF = CN[C@@H](Cc1ccccc1)C(=O)O; NMeI = CC[C@H](C)[C@H](NC)C(=O)O; d(β3hL) = CC(C)C[C@@H](N)CC(=O)O; NMeD = CN[C@@H](CC(=O)O)C(=O)O; NMeHpra = C#CCC[C@H](NC)C(=O)O; NMeL = CN[C@@H](CC(C)C)C(=O)O; NMeV = CN[C@H](C(=O)O)C(C)C; d(β3hA) = C[C@@H](N)CC(=O)O; NMeA = CN[C@@H](C)C(=O)O; Piperidide = C1CCN(*)CC1; Ac5c = NC1(C(=O)O)CCCC1; Aze = O=C(O)[C@@H]1CCN1; Ac4c = NC1(C(=O)O)CCC1; Sar = CNCC(=O)O
target: protein-protein interaction between Kras and SOS1 (biotin-tagged human Kras loaded with GDP, His-tagged human SOS1) (Homo sapiens (Human), UniProt P01116, G12D); assay: Protein-protein interaction inhibition between Kras and SOS1 (KrasG12D-SOS PPI) using AlphaScreen; format: biochemical; details: AlphaScreen; biotin-tagged human Kras loaded with GDP, His-tagged human SOS1; read-out: KRAS G12D-SOS PPI IC50;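 also: kras produced in E. coli, Ni-coupled donor beads and streptavidin acceptor beads, excitation 680 nm with emission detected at 520–620 nm via singlet oxygen transfer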

In order of rising IC50:
1. CC[C@H](C)[C@@H]1NC(=O)[C@H](CC(C)C)N(C)C(=O)C[C@@H](C)N(C)C(=O)[C@H](C2CCCC2)N(C)C(=O)C2(CCC2)NC(=O)[C@@H]2CC(F)(F)CN2C(=O)[C@H](CCc2ccc(C(F)(F)F)c(Cl)c2)NC(=O)CN(C)C(=O)[C@H](Cc2ccc(C(F)(F)F)cc2)N(CC)C(=O)[C@@H]2CCN2C(=O)[C@H](C)N(C)C1=O [Compound 949] (cyclo([Ac4c][NMeGly(cPent)][NMedβ3hAla][NMeL]I[NMeA][Aze][NEtPhe(4-CF3)][Sar][hPhe(3-Cl-4-CF3)][Pro(4,4-F2)]))  1.3 nM
2. CC[C@H](C)[C@@H]1NC(=O)[C@H](C2CCC2)N(C)C(=O)C[C@@H](C(=O)N2CCCCC2)N(C)C(=O)[C@H]([C@@H](C)CC)N(C)C(=O)C2(CCCC2)NC(=O)[C@@H]2CCCN2C(=O)[C@H](CCc2ccc(C(F)(F)F)c(Cl)c2)NC(=O)CN(C)C(=O)[C@H](CC2CCCCC2)N(C)C(=O)[C@@H]2CCN2C(=O)[C@H](C)N(C)C1=O [Compound 959] ([NMeGly(cBu)]I[NMeA][Aze][NMeCha][Sar][hPhe(3-Cl-4-CF3)]P[Ac5c][NMeI][NMeD]-Piperidide; lactam N-11)  1.4 nM
3. CCO[C@@H]1C[C@H]2C(=O)NC3(CCCC3)C(=O)N(C)[C@@H]([C@@H](C)CC)C(=O)N(C)[C@H](C)CC(=O)N(C)[C@@H](CC(C)C)C(=O)N[C@@H]([C@@H](C)CC)C(=O)N(C)[C@@H](C)C(=O)N3CC[C@H]3C(=O)N(CC)[C@@H](Cc3ccc(C)cc3)C(=O)N(C)CC(=O)N[C@@H](CCc3ccc(C(F)(F)F)c(Cl)c3)C(=O)N2C1 [Compound 951] (cyclo([Ac5c][NMeI][NMedβ3hAla][NMeL]I[NMeA][Aze][NEtPhe(4-Me)][Sar][hPhe(3-Cl-4-CF3)][Hyp](Et)))  7.9 nM
4. CC[C@H](C)[C@@H]1NC(=O)[C@H](CC(C)C)N(C)C(=O)C[C@@H](C(=O)N2CCCCC2)N(C)C(=O)[C@H](C2CCCCC2)N(C)C(=O)C2(CCCC2)NC(=O)[C@@H]2C[C@H](c3ccccc3)CN2C(=O)[C@H](CCc2ccc(C(F)(F)F)c(Cl)c2)NC(=O)CN(C)C(=O)[C@H](CC2CCCCC2)N(C)C(=O)[C@@H]2CCN2C(=O)CN(C)C1=O [Compound 960] ([NMeL]I[Sar][Aze][NMeCha][Sar][hPhe(3-Cl-4-CF3)][Pro(cis-4-Ph)][Ac5c][NMeChg][NMeD]-Piperidide; lactam N-11)  7.9 nM
5. C#CCC[C@H]1C(=O)N[C@@H]([C@@H](C)CC)C(=O)N(C)[C@@H](C)C(=O)N2CC[C@H]2C(=O)N(C)[C@@H](Cc2ccc(I)cc2)C(=O)N(C)CC(=O)N[C@@H](CCc2ccc(C(F)(F)F)c(Cl)c2)C(=O)N2CCC[C@H]2C(=O)NC2(CCCC2)C(=O)N(C)[C@@H](C2CCCCC2)C(=O)N(C)[C@H](C)CC(=O)N1C [Compound 961] (cyclo([Ac5c][NMeChg][NMedβ3hAla][NMeHpra]I[NMeA][Aze][NMePhe(4-I)][Sar][hPhe(3-Cl-4-CF3)]P))  12 nM
6. C#CCC[C@H]1C(=O)N[C@@H]([C@@H](C)CC)C(=O)N(C)[C@@H](C)C(=O)N2CC[C@H]2C(=O)N(C)[C@@H](Cc2ccc(I)cc2)C(=O)N(C)CC(=O)N[C@@H](CCc2ccc(C(F)(F)F)c(Cl)c2)C(=O)N2CCC[C@H]2C(=O)NC2(CCCC2)C(=O)N(C)[C@@H](C2CCCCC2)C(=O)N[C@H](C)CC(=O)N1C [Compound 971] (cyclo([Ac5c][NMeChg][d(β3hA)][NMeHpra]I[NMeA][Aze][NMePhe(4-I)][Sar][hPhe(3-Cl-4-CF3)]P))  16 nM
7. CC(C)C[C@H]1C(=O)N[C@@H](C2CCCC2)C(=O)N(C)[C@@H](C)C(=O)N2CC[C@H]2C(=O)N(C)[C@@H](CC2CCCCC2)C(=O)N(C)CC(=O)N[C@@H](CCc2ccc(C(F)(F)F)c(Cl)c2)C(=O)N2CCC[C@H]2C(=O)NC2(CCCC2)C(=O)N(C)[C@@H](C(C)C)C(=O)N[C@H](C)CC(=O)N1C [Compound 966] (cyclo([Ac5c][NMeV][d(β3hA)][NMeL][Gly(cPent)][NMeA][Aze][NMeCha][Sar][hPhe(3-Cl-4-CF3)]P))  110 nM
8. CC[C@H](C)[C@@H]1NC(=O)[C@H](CC(C)C)N(C)C(=O)C[C@@H](C)NC(=O)[C@H](C(C)C)N(C)C(=O)C2(CCCC2)NC(=O)[C@@H]2CCCN2C(=O)[C@H](CCc2ccc(C(F)(F)F)c(F)c2)NC(=O)CN(C)C(=O)[C@H](CC2CCCCC2)N(C)C(=O)[C@@H]2CCN2C(=O)[C@H](C)N(C)C1=O [Compound 952] (cyclo([Ac5c][NMeV][d(β3hA)][NMeL]I[NMeA][Aze][NMeCha][Sar][hPhe(3-F,4-CF3)]P))  120 nM
9. CC[C@H](C)[C@@H]1NC(=O)[C@H](C)N(C)C(=O)C[C@@H](CC(C)C)NC(=O)[C@H](C(C)C)N(C)C(=O)[C@H](Cc2ccccc2)N(C)C(=O)[C@H](CC(C)C)N(C)C(=O)[C@H](CCc2ccc(C(F)(F)F)cc2)NC(=O)CN(C)C(=O)[C@H](Cc2ccc(Cl)cc2)N(C)C(=O)CN(C)C(=O)CN(C)C1=O [Compound 972] (cyclo(I[Sar][Sar][NMePhe(4-Cl)][Sar][hPhe(4-CF3)][NMeL][NMeF][NMeV][d(β3hL)][NMeA]))  330 nM

— patent US20240148821A1, “PHARMACEUTICAL USE OF CYCLIC PEPTIDE COMPOUND” (CHUGAI SEIYAKU KABUSHIKI KAISHA, priority 2021, published 2024)
